Holding throughout (assay type): biochemical
For assay [1], the target named is T1, (MOUSE)NAT2, murine arylamine N-acetyltransferase Type 2 (Mus musculus, UniProt P50295).
T1 construct: pure recombinant
T1 sequence (P50295 1-290): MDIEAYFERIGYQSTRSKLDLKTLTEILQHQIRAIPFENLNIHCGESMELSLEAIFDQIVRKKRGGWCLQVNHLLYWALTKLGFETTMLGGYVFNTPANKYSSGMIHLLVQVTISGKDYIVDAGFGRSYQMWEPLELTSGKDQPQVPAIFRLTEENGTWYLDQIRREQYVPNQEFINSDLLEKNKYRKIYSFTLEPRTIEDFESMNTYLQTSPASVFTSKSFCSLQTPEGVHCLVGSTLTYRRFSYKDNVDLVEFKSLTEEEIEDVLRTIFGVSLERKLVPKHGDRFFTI
The assay can be described thus: real-time 1H-NMR and DTNB assay of hydrolysis to CoA and acetate.

The target of assay [2] is T2, (HUMAN)NAT1, human arylamine N-acetyltransferase Type 1 (Homo sapiens, UniProt P18440).
T2 construct: pure recombinant
T2 sequence (P18440 1-290): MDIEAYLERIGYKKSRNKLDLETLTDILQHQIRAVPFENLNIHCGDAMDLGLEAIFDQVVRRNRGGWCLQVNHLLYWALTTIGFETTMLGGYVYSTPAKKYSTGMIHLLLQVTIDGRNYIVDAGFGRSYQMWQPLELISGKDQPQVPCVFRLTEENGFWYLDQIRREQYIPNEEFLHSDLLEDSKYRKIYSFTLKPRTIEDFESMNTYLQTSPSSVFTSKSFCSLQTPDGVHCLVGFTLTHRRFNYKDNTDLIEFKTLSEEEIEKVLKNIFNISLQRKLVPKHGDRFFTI
Description: HPLC time course of hydrolysis to CoA.

For assay [3], the target named is T1, (MOUSE)NAT2, murine arylamine N-acetyltransferase Type 2. Description: DTNB colorimetric assay of folate-dependent AcCoA hydrolysis, dose response. From the text:
DTNB colorimetric assay of folate-dependent AcCoA hydrolysis, dose response on (MOUSE)NAT2, murine arylamine N-acetyltransferase Type 2 | its concentration dependence was characterised (Figure 6C).

In assay [4] the target is T2, (HUMAN)NAT1, human arylamine N-acetyltransferase Type 1. Description: folate concentration dependence of AcCoA hydrolysis (Michaelis-Menten fit); HPLC time course.
For assay [5], the target named is T1, (MOUSE)NAT2, murine arylamine N-acetyltransferase Type 2. Description: folate concentration dependence of AcCoA hydrolysis (Michaelis-Menten fit); real-time 1H-NMR of turnover.
Assay [6] shares this target. Description: DTNB colorimetric hydrolysis assay.

Take `CC(=O)SCCNC(=O)CCNC(=O)[C@H](O)C(C)(C)COP(=O)(O)OP(=O)(O)OC[C@H]1O[C@@H](n2cnc3c(N)ncnc32)[C@H](O)[C@@H]1OP(=O)(O)O` [acetyl Coenzyme A]: the “specific rate of hydrolysis to CoA and acetate” value in assay [1] stood at 360 µM/s/mg. Further, in assay [2], the “specific rate of hydrolysis to CoA” value turned out to be 583 µM/s/mg.

`Cc1cc(C)cc(NC2=C(NS(=O)(=O)c3ccccc3)C(=O)c3ccccc3C2=O)c1` [compound 1, naphthoquinone 1] had an IC50 in assay [3] of 0.14 µM. Take `Nc1nc2ncc(CNc3ccc(C(=O)N[C@@H](CCC(=O)O)C(=O)O)cc3)nc2c(=O)[nH]1` [folate]: the figures for the Kd in assay [4] and in assay [5] were ~75 µM and ~71 µM, respectively. With `CCC(=O)SCCNC(=O)CCNC(=O)[C@H](O)C(C)(C)COP(=O)(O)OP(=O)(O)OC[C@H]1O[C@@H](n2cnc3c(N)ncnc32)[C@H](O)[C@@H]1OP(=O)(O)O` [n-propionyl CoA], the “specific acetyl-CoA hydrolysis rate” value in assay [6] is 290 µM/s/mg.

For orientation: IC50 means the concentration needed to halve the response being measured. High values mean weaker potency in that assay, low ones greater potency in that assay. The Kd is the concentration at which binding is half-saturated. Read a low Kd as a tighter complex.

The values above are taken from PMC4019507, “From Arylamine N-Acetyltransferase to Folate-Dependent Acetyl CoA Hydrolase: Impact of Folic Acid on the Activity of (HUMAN)NAT1 and Its Homologue (MOUSE)NAT2” (PLoS ONE, 2014).
